Experimental data published in patent US5206234A, “Benzolactam analogs as antagonists of CCK” (priority 1991, dated 1993).
Blank lines part the entries; values can stand above or below the compound they belong to.

Columns and labels:
CCK-A receptors = conditions: cited from earlier work
CCK-B receptors = conditions: cited from earlier work
[1] = system: exploratory behavior of the rat; test: Exploration in a novel environment by direct observation (perspex cage); type: in vivo; conditions: 0.1 mg/kg
Text: (§1) B. The effects of CCK-8 and compound A on the exploratory behavior of the rat were examined in automated activity cages and by direct observation. It is known that exogenous CCK-8 decreases exploratory behavior in rats in a novel environment by accelerating the process of habituation. [See Crawley, Pharm. Biochem & Behav. 20, 23-27 (1984).]
Expt 3. In order to assess further the effect of Compound A on exploration in a novel environment, the motoric hehaviors of rats placed in a perspex cage was recorded by direct observation for a 15 minute period 15 minutes after treatment with Compound A.
Experimenters (unaware of the treatments the animals had received) recorded the frequency and duration of rearing, sniffing, grooming and cage crossing using a keypad interfaced to a BBC microcomputer.

anxiety (mice) = test: Black/white exploration test (anxiolytic activity); type: in vivo, mouse (male DBA2)
Text: The black/white exploration test [Crawley et al. Pharmacology, Biochemistry and Behav. 13, 167 (1980)] is a simple animal model of anxiety. Rodents placed in a two compartment box which consists of a brightly lit, white painted side and a dimly lit, black painted side, display a marked preference for the black side of the apparatus. This behavior is caused by the aversive properties of the brightly lit, white painted section. Classical anxiolytic drugs [such as diazepam, see Crawley, supra] and novel anxiolytic drugs [such as 5HT3 antagonists, see Jones et al. Br. J. Pharm.
A. Naive male DBA2 mice (25-30) were housed on a reversed light/dark cycle and tested during the dark phase of the cycle under dim red light. The apparatus consisted of an open topped box (40 cm long×27 cm wide×27 cm high) divided into a small area (2/5) and a large area (3/5) by a partition that extended 20 cm above the walls. There was a 7.5×7.5 cm opening in the partition at floor level. The small compartment was painted black and the large compartment white. The floor of each compartment was marked into 9 cm squares. The white compartment was illuminated by a 100 W tungsten bulb 17 cm above the box and the black compartment by a similarly placed 60 W red bulb.
Animals that had been injected with drug or vehicle were placed individually into the centre of the white area and their behavior observed during a 5 minute period by remote video recording. Four behavioral parameters were recorded every minute: the number of exploratory rears in the white and black sections, the number of line crossings in the black and white sections, the number of transitions between the two sections and the time spent in the black and white sections. Animals were tested in treatment groups of 8-10 and vehicle controls were run on each test day. Data were analysed by ANOVA and Dunnetts test.

[2] = system: exploratory behavior of the rat; test: Exploratory behavior in automated activity cages, novel environment; type: in vivo, rat (Male Sprague Dawley)
Method: as §1
Expt 1. Male Sprague Dawley rats were injected ([…].) with CCK-8 and immediately placed in automated activity cages. Activity was measured for 30 minutes past injection.
Expt 2. Male SD rats were injected (s.c.) with the CCK antagonist compound A (0.0001-10 mg/kg) and immediately placed in the automated activity cages.

CCK receptor (Pancreas) = target: T1, CCK receptor (Pancreas) (Rattus norvegicus, UniProt P30551); test: CCK Receptor Binding (Pancreas), inhibition of 125I-CCK-33 binding; parameters: species or system rat (Male Sprague-Dawley); conditions: 125I-CCK-33, rat pancreas membranes
T1 construct: The whole pancreas was dissected free of fat tissue and was homogenized; from tissue; host or cells: pancreas membranes of male Sprague-Dawley rats
T1 sequence (P30551 1-444): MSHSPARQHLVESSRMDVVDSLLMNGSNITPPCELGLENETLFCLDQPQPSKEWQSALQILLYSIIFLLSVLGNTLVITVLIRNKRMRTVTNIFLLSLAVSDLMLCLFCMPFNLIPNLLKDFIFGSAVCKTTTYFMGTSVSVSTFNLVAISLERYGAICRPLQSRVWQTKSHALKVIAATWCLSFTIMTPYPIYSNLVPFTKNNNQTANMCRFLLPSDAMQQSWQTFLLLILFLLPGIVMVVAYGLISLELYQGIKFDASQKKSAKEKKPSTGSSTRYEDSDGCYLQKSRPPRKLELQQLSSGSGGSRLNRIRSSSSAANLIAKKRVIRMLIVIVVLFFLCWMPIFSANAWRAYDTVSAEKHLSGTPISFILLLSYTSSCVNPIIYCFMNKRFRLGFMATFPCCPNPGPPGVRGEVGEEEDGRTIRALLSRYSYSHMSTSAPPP
Method: CCK-33 was radiolabeled with ^125 I-Bolton Hunter reagent (2000 Ci/mmole) as described by Sankara et al. (J. Biol. Chem. 254: 9349-9351, 1979). Receptor binding was performed according to Innis and Snyder (Proc. Natl. Acad. Sci. 77, 6917-6921, 1980) with the minor modification of adding the additional protease inhibitors, phenylmethane sulfonyl fluoride and o-phenanthroline. The latter two compounds have no effect on the ^125 I-CCK receptor binding assay.
Male Sprague-Dawley rats (200-350 g) were sacrificed by decapitation. The whole pancreas was dissected free of fat tissue and was homogenized in 20 volumes of ice-cold 50 mM Tris HCl (pH 7.7 at 25° C.) with a Brinkmann Polytron PT 10. The homogenates were centrifuged at 48,000 g for 10 min. Pellets were resuspended in Tris Buffer, centrifuged as above and resuspended in 200 volumes of binding assay buffer (50 mM Tris HCl, pH 7.7 at 25° C., 5 mM dithiothrietol, 0.1 mM bacitracin, 1.2 mM phenylmethane sulfonyl fluoride and 0.5 mM o-phenanthroline). […] All assays were run in duplicate or triplicate. The reaction mixtures were incubated at 37° C. for 30 minutes and centrifuged in a Beckman Microfuge (4 minutes) immediately after adding 1 ml of ice-cold incubation buffer. The supernatant was aspirated and discarded, pellets were counted with a Beckman gamma 5000. For Scatchard analysis (Ann. N.Y. Acad. Sci. 51: 660, 1949), ^125 I-CCK-33 was progressively diluted with increasing concentrations of CCK-33.
A Ki value (dissociation constant of inhibitor) of the compounds of Formula I was estimated.

[3] = target: T2, CCK receptor (Brain, cerebral cortex) (Cavia porcellus, UniProt H0VZC5); test: CCK Receptor Binding (Brain), inhibition of 125I-CCK-33 binding; parameters: species or system guinea pig (Male Hartley); conditions: head prints ^25 I-CCK; guinea pig cerebral cortex
T2 construct: Cerebral cortex was dissected and used as a receptor source; from tissue; host or cells: cerebral cortex membranes of male Hartley guinea pigs
T2 sequence (H0VZC5 1-426): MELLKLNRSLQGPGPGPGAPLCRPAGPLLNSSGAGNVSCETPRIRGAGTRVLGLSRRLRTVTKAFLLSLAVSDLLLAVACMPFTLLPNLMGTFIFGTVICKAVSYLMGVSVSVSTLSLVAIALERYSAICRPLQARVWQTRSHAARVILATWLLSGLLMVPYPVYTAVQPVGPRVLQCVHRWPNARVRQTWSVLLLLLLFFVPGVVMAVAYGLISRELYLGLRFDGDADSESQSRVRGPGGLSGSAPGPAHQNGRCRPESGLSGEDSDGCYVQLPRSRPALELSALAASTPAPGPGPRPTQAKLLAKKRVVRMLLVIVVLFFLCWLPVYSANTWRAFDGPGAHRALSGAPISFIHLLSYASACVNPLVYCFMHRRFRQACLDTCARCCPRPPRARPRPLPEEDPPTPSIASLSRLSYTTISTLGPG
Method: CCK-33 was radiolabeled and the binding was performed according to the description for the pancreas method with modifications according to Saito et al., J. Neurochem. 37:483-490, 1981.
Male Hartley guinea pigs (300-500 g) were sacrificed by decapitation and the brains were removed and placed in ice-cold 50 mM Tris HCl plus 7.58 g/l Trizma-7.4 (pH 7.4 at 25° C.). Cerebral cortex was dissected and used as a receptor source. Each gram of fresh guinea pig brain tissue was homogenized in 10 ml of Tris/Trizma buffer with a Brinkman polytron PT-10. The homogenates were centrifuged at 42,000 g for 15 minutes. Pellets were resuspended in Tris Buffer, centrifuged as above and resuspended in 200 volumes of binding assay buffer (10 mM N-2-hydroxyethyl-piperazine-N'-2-ethane sulfonic acid (HEPES), 5 mM MgCl2, 0.25 mg/ml bacitracin, 1 mM ethylene glycol-bis-(β-aminoethylether-N,N'-tetraacetic acid) (EGTA), and 0.4% bovine serum albumin (BSA)). […] All assays were run in duplicate or triplicate. The reaction mixtures were incubated at 25° C. for 2 hours and centrifuged in a Beckman Microfuge (4 minutes) immediately after adding 1 ml of ice-cold incubation buffer. The supernatant was aspirated and discarded, pellets were counted with a Beckman gamma 5000.

[4] = target: T3, Gastrin receptor (Gastric Glands) (Cavia porcellus, UniProt H0VZC5); test: Gastrin Receptor Binding in Guinea Pig Gastric Glands; parameters: species or system guinea pig (male Hartley); conditions: head prints ^25 I-Gastrin, read-out: Receptor binding IC50, 125I-Gastrin Gastric Glands
T3 construct: from tissue; host or cells: gastric mucosal glands of male Hartley guinea pigs
T3 sequence (H0VZC5 1-426): T2 sequence (H0VZC5 1-426)
Method: Guinea pig gastric mucosal glands were prepared by the procedure of Berglingh and Obrink Acta Physiol. Scand. 96: 150 (1976) with a slight modification according to Praissman et al. C. J. Receptor Res. 3: (1983). Gastric mucosa from guinea pigs (300-500 g body weight, male Hartley) were washed thoroughly and minced with fine scissors in standard buffer consisting of the following: 130 mM NaCl, 12 mM NaHCO3, 3 mM NaH2 PO4, 3 mM Na2 HPO4, 3 mM K2 HPO4, 2 mM MgSO4, 1 mM CaCl2, 5 mM glucose and 4 mM L-glutamine, 25 mM HEPES at pH 7.4. The minced tissues were washed and then incubated in a 37° C. shaker bath for 40 minutes with the buffer containing 0.1% collagenase and 0.1% BSA and bubbled with 95% O2 and 5% CO2. The tissues were passed twice through a 5 ml glass syringe to liberate the gastric glands, and then filtered through 200 mesh nylon. The filtered glands were centrifuged at 270 g for 5 minutes and washed twice by resuspension and centrifugation.
The washed guinea pig gastric glands prepared as above were resuspended in 25 ml of standard buffer containing 0.25 mg/ml of bacitracin. For binding studies, to 220 μl of gastric glands in triplicate tubes, 10 μl of buffer (for total binding) or gastrin (1 μM final concentration, for nonspecific binding) or test compound and 10 μl of ^125 I-gastrin (NEN, 2200 Ci/mmole, 25 pM final) or ^3 H-pentagastrin (NEN 22 Ci/mmole, 1 nM final) were added. The tubes were aerated with 95% O2 and 5% CO2 and capped. The reaction mixtures after incubation at 25° C. for 30 minutes were filtered under reduced pressure on glass G/F B filters (Whatman) and immediately washed further with 4×4 ml of standard buffer containing 0.1% BSA. The radioactivity on the filters was measured using a Beckman gamma 5500 for ^125 I-gastrin or liquid scintillation counting for ^3 H-pentagastrin.

Compound: gastrin: structurally related neuropeptides which exist in gastrointestinal tissue and in the central nervous system
Affinity for CCK-A receptors (CCK-A receptors): lower affinity

Compound: CSCC[C@H](NC(=O)[C@H](Cc1ccc(O)cc1)NC(=O)[C@@H](N)CC(=O)O)C(=O)NCC(=O)N[C@@H](Cc1c[nH]c2ccccc12)C(=O)N[C@@H](CCSC)C(=O)N[C@@H](CC(=O)O)C(=O)N[C@@H](Cc1ccccc1)C(N)=O [CCK-8d]
Affinity for CCK-A receptors (CCK-A receptors): lower affinity

Compound: CSCC[C@H](NC(=O)[C@H](Cc1c[nH]c2ccccc12)NC(=O)CCNC(=O)OC(C)(C)C)C(=O)N[C@@H](CC(=O)O)C(=O)N[C@@H](Cc1ccccc1)C(N)=O [pentagastrin]
Affinity for CCK-B receptors (CCK-B receptors): high affinity

Compound: CN1C(=O)[C@@H](NC(=O)c2cc3ccccc3[nH]2)N=C(c2ccccc2)c2ccccc21 [Compound A, 3(S)-(-)-1,3-dihydro-3-(2-indolecarbonylamino)-1-methyl-5-phenyl-2H-1,4-benzodiazepin-2-one]
Cage crossing ([1]; F(3,43)=3.79, P<0.05): significantly increased
Sniffing ([1]; F(3,43)=3.96, P<0.01): significantly increased
Rearing ([1]; F(3,43)=4.77, P<0.01): significantly increased
Preference for locomotion (line crossings) in the black side (anxiety (mice); 0.5, 5.0 and 500 ug/kg): abolished the preference for locomotion (line crossings) in the black side
Difference in time spent in the black and white side (anxiety (mice); 5.0 and 500 ug/kg): abolished
Active dose range (anxiety (mice); black/white exploration test, mice): 0.05 to 5.0 µg/kg
Preference for rearing in the black side (anxiety (mice); doses of 0.05, 0.5, 5.0 and 500 ug/kg): significantly decreased the preference for rearing in the black side
Habituation and period of exploratory activity ([2]; 0.0001-10 mg/kg s.c., F(6,124)=2.54, p<0.05): delayed habituation and prolonged the period of exploratory activity of the rats
Level of activity at 25 minutes ([2]; 0.1 mg/kg s.c., 25 minutes, F(6.124)=3.18, p<0.01): significantly above controls
Level of activity at 25 minutes ([2]; doses higher and lower than 0.1 mg/kg, bell-shaped dose response): no significant effect on activity

IC50 (CCK receptor (Pancreas)): 170 nM
IC50 [3]: 660 nM
IC50 [4]: 130 nM
Compound: Cc1ccc(NC(=O)NC2CCc3ccccc3N(CC(=O)OC(C)(C)C)C2=O)cc1 (stereo not shown) [Example 12]

IC50 (CCK receptor (Pancreas)): 1700 nM
IC50 [3]: 650 nM
IC50 [4]: 460 nM
Compound: O=C(Nc1cccc2ccccc12)NC1CCc2ccccc2N(CC(=O)N2CCCC2)C1=O (stereo not shown) [Example 11, 1-{[2,3,4,5-Tetrahydro-3-{[[(1-naphthalenyl)amino]carbonyl]amino}-2-oxo-1H-1-benzazepin-1-yl]acetyl}pyrrolidine]
